Assay results as given in patent US9656971B2, “COMT inhibitors” (Hoffmann-La Roche Inc., priority 2012, dated 2017).
Read-outs that look alike come from different tables or passages of the source.

Molecular target: T1, Rec. human COMT (Homo sapiens, UniProt P21964)
T1 sequence (P21964 1-271): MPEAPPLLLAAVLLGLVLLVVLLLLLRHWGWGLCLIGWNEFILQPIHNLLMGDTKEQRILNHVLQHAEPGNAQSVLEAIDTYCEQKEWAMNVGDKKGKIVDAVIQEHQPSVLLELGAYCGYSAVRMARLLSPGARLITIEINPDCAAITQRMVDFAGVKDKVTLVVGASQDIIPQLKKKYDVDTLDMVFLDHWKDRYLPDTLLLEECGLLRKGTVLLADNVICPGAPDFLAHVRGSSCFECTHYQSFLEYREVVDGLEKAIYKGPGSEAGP
Test: COMT-Fluorescence Assay
Type: biochemical
Conditions: rec. human COMT 25 nM, 4-Nitrocatechol-Alexa488 200 nM, SAM 500 nM
Description: This intramolecular interaction is disturbed if the 4-Nitrocatechol is methylated. […] This increase of fluorescence intensity can be followed in a kinetic measurement. The slope in the linear range of the kinetic is calculated. An inhibitor compound decreases the slope.
Signal [rfu/min]=(rfu(end-point)−rfu(startpoint))/incubation_time_#2

[1] = COMT-fluorescence assay, read-out: IC50

| Compound | IC50 [1] [nM] | IC50 (IC50, COMT-fluorescence assay) [nM] |
| --- | --- | --- |
| Cc1cn(C)c(-c2cc(O)c3nc[nH]c(=O)c3c2)n1 [Example 188, 6-(1,4-Dimethyl-1H-imidazol-2-yl)-8-hydroxyquinazolin-4(3H)-one] | 1270 |  |
| O=c1[nH]cnc2c(O)cc(Oc3ccc(F)cc3)cc12 [Example 189, 6-(4-Fluorophenoxy)-8-hydroxyquinazolin-4(3H)-one] | 840 |  |
| CN1CCN(c2cc(O)c3nc[nH]c(=O)c3c2)CC1 [Example 190, 8-Hydroxy-6-(4-methyl-piperazin-1-yl)-3H-quinazolin-4-one] |  | 1290 |
| CN1CCN(C(=O)c2cccc(-c3cc(O)c4nc[nH]c(=O)c4c3)c2)CC1 [Example 191, 8-Hydroxy-6-[3-(4-methyl-piperazine-1-carbonyl)-phenyl]-3H-quinazolin-4-one] | 30 |  |
| O=C(c1cccc(-c2cc(O)c3nc[nH]c(=O)c3c2)c1)N1CCS(=O)(=O)CC1 [Example 192, 6-[3-(1,1-Dioxo-1λ^6-thiomorpholine-4-carbonyl)-phenyl]-8-hydroxy-3H-quinazolin-4-one] | 20 |  |
| CN1CCN(C(=O)c2ccccc2-c2cc(O)c3nc[nH]c(=O)c3c2)CC1 [Example 193, 8-Hydroxy-6-[2-(4-methyl-piperazine-1-carbonyl)-phenyl]-3H-quinazolin-4-one] | 1280 |  |
| O=C(c1ccccc1-c1cc(O)c2nc[nH]c(=O)c2c1)N1CCS(=O)(=O)CC1 [Example 194, 6-[2-(1,1-Dioxo-1λ^6-thiomorpholine-4-carbonyl)-phenyl]-8-hydroxy-3H-quinazolin-4-one] | 730 |  |
| O=c1[nH]cnc2c(O)cc(-c3ccc(F)cc3)c(F)c12 [Example 195, 5-Fluoro-6-(4-fluorophenyl)-8-hydroxyquinazolin-4(3H)-one] | 10 |  |
| O=c1[nH]cnc2c(O)cc(Br)c(F)c12 [Example 196, 6-Bromo-5-fluoro-8-hydroxyquinazolin-4(3H)-one] | 120 |  |
| O=c1[nH]cnc2c(O)ccc(F)c12 [Example 197, 5-Fluoro-8-hydroxyquinazolin-4(3H)-one] | 2530 |  |
| Cc1ncccc1-c1cc(O)c2nc[nH]c(=O)c2c1F [Example 198, 5-Fluoro-8-hydroxy-6-(2-methylpyridin-3-yl)quinazolin-4(3H)-one] | 10 |  |
| O=C(c1cccc(-c2cc(O)c3nc[nH]c(=O)c3c2)c1)N1CCC(F)(F)CC1 [Example 199, 6-[3-(4,4-Difluoro-piperidine-1-carbonyl)-phenyl]-8-hydroxy-3H-quinazolin-4-one] | 20 |  |
| O=C(c1ccc(-c2cc(O)c3nc[nH]c(=O)c3c2)cc1)N1CCC(F)(F)CC1 [Example 200, 6-[4-(4,4-Difluoro-piperidine-1-carbonyl)-phenyl]-8-hydroxy-3H-quinazolin-4-one] | 10 |  |
| O=c1[nH]cnc2c(O)c(F)c(-c3ccc(F)cc3)cc12 [Example 201, 7-Fluoro-6-(4-fluorophenyl)-8-hydroxyquinazolin-4(3H)-one] | 20 |  |
| Cc1ccc(-c2cc(O)c3nc[nH]c(=O)c3c2)c(C)n1 [Example 202, 6-(2,6-Dimethyl-pyridin-3-yl)-8-hydroxy-3H-quinazolin-4-one] | 20 |  |
| Cc1nc(-c2ccccc2)sc1-c1cc(O)c2nc[nH]c(=O)c2c1 [Example 203, 8-Hydroxy-6-(4-methyl-2-phenylthiazol-5-yl)quinazolin-4(3H)-one] | 10 |  |
| Cc1c(-c2cc(O)c3nc[nH]c(=O)c3c2)cnn1-c1ccccc1 [Example 204, 8-Hydroxy-6-(5-methyl-1-phenyl-1H-pyrazol-4-yl)quinazolin-4(3H)-one] | 20 |  |
| Cc1n[nH]cc1-c1cc(O)c2nc[nH]c(=O)c2c1 [Example 205, 8-Hydroxy-6-(3-methyl-1H-pyrazol-4-yl)quinazolin-4(3H)-one] | 170 |  |
| Cc1c(-c2cc(O)c3nc[nH]c(=O)c3c2)cnn1C [Example 206, 6-(1,5-Dimethyl-1H-pyrazol-4-yl)-8-hydroxyquinazolin-4(3H)-one] | 30 |  |

| Compound | IC50 [1] [nM] | IC50 (IC50, COMT-fluorescence assay) [nM] |
| --- | --- | --- |
| N#Cc1ccccc1-c1cc(O)c2nc[nH]c(=O)c2c1 [Example 207, 2-(8-Hydroxy-4-oxo-3,4-dihydroquinazolin-6-yl)benzonitrile] | 20 |  |
| N#CCc1ccccc1-c1cc(O)c2nc[nH]c(=O)c2c1 [Example 208, 2-(2-(8-Hydroxy-4-oxo-3,4-dihydroquinazolin-6-yl)phenyl)acetonitrile] | 50 |  |
| CN(C)c1ccccc1-c1cc(O)c2nc[nH]c(=O)c2c1 [Example 209, 6-(2-(Dimethylamino)phenyl)-8-hydroxyquinazolin-4(3H)-one] | 370 |  |
| Cc1ccccc1-c1cc(O)c2nc[nH]c(=O)c2c1 [Example 210, 8-Hydroxy-6-o-tolylquinazolin-4(3H)-one] | 30 |  |
| CCOc1cc(F)ccc1-c1cc(O)c2nc[nH]c(=O)c2c1 [Example 211, 6-(2-Ethoxy-4-fluorophenyl)-8-hydroxyquinazolin-4(3H)-one] | 70 |  |
| CS(=O)(=O)c1ccccc1-c1cc(O)c2nc[nH]c(=O)c2c1 [Example 212, 8-Hydroxy-6-(2-(methylsulfonyl)phenyl)quinazolin-4(3H)-one] |  | 870 |
| Cc1ccc(F)cc1-c1cc(O)c2nc[nH]c(=O)c2c1 [Example 213, 6-(5-Fluoro-2-methylphenyl)-8-hydroxyquinazolin-4(3H)-one] |  | 30 |
| O=c1[nH]cnc2c(O)cc(-c3ccccc3-c3ccccc3)cc12 [Example 214, 6-(Biphenyl-2-yl)-8-hydroxyquinazolin-4(3H)-one] | 640 |  |
| CCOc1cc(Cl)ccc1-c1cc(O)c2nc[nH]c(=O)c2c1 [Example 215, 6-(4-Chloro-2-ethoxyphenyl)-8-hydroxyquinazolin-4(3H)-one] |  | 70 |
| O=c1[nH]cnc2c(O)cc(-c3cccnc3OCC(F)(F)F)cc12 [Example 216, 8-Hydroxy-6-(2-(2,2,2-trifluoroethoxy)pyridin-3-yl)quinazolin-4(3H)-one] | 40 |  |
| CCc1ccccc1-c1cc(O)c2nc[nH]c(=O)c2c1 [Example 217, 6-(2-Ethylphenyl)-8-hydroxyquinazolin-4(3H)-one] | 50 |  |
| CC(C)N(Cc1ccccc1-c1cc(O)c2nc[nH]c(=O)c2c1)C(C)C [Example 218, 6-(2-((Diisopropylamino)methyl)phenyl)-8-hydroxyquinazolin-4(3H)-one] | 1400 |  |
| Cc1cnccc1-c1cc(O)c2nc[nH]c(=O)c2c1 [Example 219, 8-Hydroxy-6-(3-methylpyridin-4-yl)quinazolin-4(3H)-one] | 20 |  |
| COCc1ccccc1-c1cc(O)c2nc[nH]c(=O)c2c1 [Example 220, 8-Hydroxy-6-(2-(methoxymethyl)phenyl)quinazolin-4(3H)-one] | 20 |  |
| O=c1[nH]cnc2c(O)cc(-c3ccccc3C(F)(F)F)cc12 [Example 221, 8-Hydroxy-6-(2-(trifluoromethyl)phenyl)quinazolin-4(3H)-one] | 30 |  |
| O=c1[nH]cnc2c(O)cc(-c3ccccc3Oc3ccccc3)cc12 [Example 222, 8-Hydroxy-6-(2-phenoxyphenyl)quinazolin-4(3H)-one] | 60 |  |
| CSc1ccccc1-c1cc(O)c2nc[nH]c(=O)c2c1 [Example 223, 8-Hydroxy-6-(2-(methylthio)phenyl)quinazolin-4(3H)-one] | 20 |  |
| O=c1[nH]cnc2c(O)cc(-c3ccccc3N3CCOCC3)cc12 [Example 224, 8-Hydroxy-6-(2-morpholinophenyl)quinazolin-4(3H)-one] |  | 220 |
